In patent publication US20130149721A1, “Methods for Inhibiting Amyloid Precursor Protein and Beta-Amyloid Production and Accumulation” (WISCONSIN ALUMNI RESEARCH FOUNDATION, priority 2008, published 2013):
Marks after values point to notes of the source that are not given here.

Key:
[1] = test system: PTZ-induced seizures in WT, Fmr-1 KO, Tg2576 and FRAXAD mice; experiment: PTZ seizure induction after MPEP pre-treatment; format: in vivo, mouse; details: 30 mg/kg MPEP I.P. 30 min prior to PTZ
Experimental: To assess the impact of mGluR5 inhibition on seizure phenotypes, Frm-1 KO, Tg2576, and FRAXAD mice were treated with mGluR5 antagonist, MPEP. Tg2576, FRAXAD and littermate controls were treated with 30 mg/kg MPEP (via I.P. injections) 30 min prior to seizure induction with PTZ. The experimental results presented in Table 2 support MPEP's effect as an anti-convulsant in both WT and Fmr-1 KO mice. WT male mice reach a grade 3 seizure, fully developed minimal seizure with clonus of the head muscles and forelimbs, at a rate of 50% in response to 50 mg/kg PTZ, but only 20% achieve a grade 3 seizure with MPEP treatment 30 min prior to PTZ (statistically significant, χ^2 test, p<0.0005). Likewise, there was a reduction from 11% to 0%, 46% to 25%, and 40% to 33% in WT females, Fmr-1 KO males and Fmr-1 KO females, respectively when tested using the seizure induction assay.

[2] = test system: APP levels in WT and Fmr-1 KO SN; experiment: Western blot of steady-state APP levels in synaptoneurosomes; format: cell-based, mouse
Experimental: FIG. 3 is a result from western blot analysis illustrating differential regulation of APP levels in WT and KO SN. Western blots of WT (top panel) and KO (bottom panel) SN treated in the presence or absence of DHPG (at 5, 10 and 20 min of incubation) were probed with anti-APP and anti-β-actin (control) antibodies.
Western blot analysis. Aliquots of SNs were collected at 5, 10, and 20 min after DHPG treatment, quenched with an equal volume of 2×SDS sample buffer (8% SDS, 24% glycerol, 100 mM Tris (pH 6.8), 4% β-mercaptoethanol, 0.02% bromophenol blue, 2% Triton X-100, 2% deoxycholate, 2% NP-40 alternative, and 2% sarkosyl) and boiled for 5 min prior to analysis by 12% SDS-PAGE. The separated proteins were transferred to a 0.45 μm nitrocellulose membrane in Towbin buffer containing 20% methanol with a Criterion Blotter (Bio-Rad, http://www.bio-rad.com; 100 V, 4° C., 75 min). The membranes were blocked in 5% nonfat dry milk and hybridized with anti-rabbit APP antibody (dilution, 1 μg/ml) and anti-mouse β-actin antibody (dilution, 1:20,000) followed by hybridization with anti-rabbit or anti-mouse HRP-conjugated secondary antibodies (dilution, 1:2000). […]
In order to assess changes in steady-state APP levels, rather than new protein synthesis, APP was measured in WT and Fmr-1 KO SN in response to DHPG by western blot analysis (FIG. 3). […]

Row | SMILES | MPEP + PTZ % death ([1]; FMR-1 KO female) [%] | MPEP + PTZ % grade 3 ([1]; FMR-1 KO female) [%] | MPEP + PTZ % death ([1]; FMR-1 KO male) [%] | MPEP + PTZ % grade 3 ([1]; FMR-1 KO male, 30 mg/kg) [%] | MPEP + PTZ % death ([1]; FRAXAD female) | MPEP + PTZ % grade 3 ([1]; FRAXAD female) [%] | MPEP + PTZ % death ([1]; FRAXAD male) | MPEP + PTZ % grade 3 ([1]; FRAXAD male) [%] | MPEP + PTZ % death ([1]; Tg2576 female) | MPEP + PTZ % grade 3 ([1]; Tg2576 female) [%] | MPEP + PTZ % death ([1]; Tg2576 male) [%] | MPEP + PTZ % grade 3 ([1]; Tg2576 male) [%] | MPEP + PTZ % death ([1]; WT female) [%] | MPEP + PTZ % grade 3 ([1]; WT female, 30 mg/kg) [%] | MPEP + PTZ % death ([1]; WT male) [%] | MPEP + PTZ % grade 3 ([1]; WT male, 30 mg/kg) [%] | increase in total APP levels ([2]; Fmr-1 KO SN, DHPG) | increase in total APP levels ([2]; WT SN, within 5 min of DHPG, n=3) [fold]
1 | Cc1cccc(C#Cc2ccccc2)n1 [MPEP, 2-methyl-6-(phenylethynyl)pyridine] | 0 | 33 | 0 | 25 | 40* % | 100 | 60* % | 80 | 50* % | 75 | 75 | 100 | 0 | 0 | 0 | 20 | – | –
2 | N[C@@H](C(=O)O)c1cc(O)cc(O)c1 (racemic) [DHPG, (R,S)-3,5-dihydroxyphenylglycine] | – | – | – | – | – | – | – | – | – | – | – | – | – | – | – | – | completely absent | 1.6
